In ChEMBL document CHEMBL5620362 (Eur J Med Chem, 2023):
Active and inactive are the calls of the source. The calls are words filed in the database; no cut-off is given here.

Assays:
SW1573 = assay: Anticancer activity against human SW1573 cells incubated for 72 hrs; type: functional, cell-based
PANC-1 = assay: Anticancer activity against human PANC-1 cells incubated for 72 hrs; type: functional, cell-based
HPAF-II [1] = assay: Induction of apoptosis in human HPAF-II cells assessed as increase in cleaved caspase-3 level at 0.1 to 1 uM incubated for 48 hrs by Western blot analysis; type: functional, cell-based; conditions: dose 0.1-1 µM
[2] = Tmax in ICR mouse at 10 mg/kg, po; type: ADME, organism-based; conditions: in vivo
HPAF-II [3] = assay: Induction of apoptosis in human HPAF-II cells harboring siROR-gamma at 0.1 uM incubated for 24 hrs by Annexin V-FITC/PI staining based flow cytometry; type: functional, cell-based
A549 = assay: Anticancer activity against human A549 cells incubated for 72 hrs; type: functional, cell-based
HPAF-II [4] = assay: Antitumor activity against human HPAF-II cells xenografted in nude Balb/cA mouse assessed as tumor growth inhibition at 15 mg/kg, ip qd measured for 12 days relative to control; type: functional; design: scale not given: the % may be the effect or the level left; conditions: time 12 day
[5] = AUC (infinity) in ICR mouse at 3 mg/kg, iv; type: ADME, organism-based; conditions: in vivo
[6] = Half life in ICR mouse at 3 mg/kg, iv; type: ADME, organism-based; conditions: in vivo
[7] = Volume of distribution at steady state in ICR mouse at 3 mg/kg, iv; type: ADME, organism-based; conditions: in vivo, read-out: Vdss
NCI-H1373 = assay: Anticancer activity against human NCI-H1373 cells incubated for 72 hrs; type: functional, cell-based
NCI-H358 [8] = assay: Induction of apoptosis in human NCI-H358 cells 1 uM incubated for 48 hrs by Annexin V-FITC/PI staining based flow cytometry; type: functional, cell-based
[9] = MRT (infinity) in ICR mouse at 3 mg/kg, iv; type: ADME, organism-based; conditions: in vivo
HPAF-II [10] = assay: Induction of apoptosis in human HPAF-II cells assessed as necrotic cells at 1 uM incubated for 48 hrs by Annexin V-FITC/PI staining based flow cytometry (reference value: 8.09 %); type: functional
MIA PaCa-2 [11] = assay: Cytotoxicity against human MIA PaCa-2 cells harboring siROR-gamma assessed as decrease in cell viability at 0.1 uM incubated for 72 hrs by SRB assay; type: functional, cell-based
MIA PaCa-2 [12] = assay: Induction of apoptosis in human MIA PaCa-2 cells 1 uM incubated for 48 hrs by Annexin V-FITC/PI staining based flow cytometry; type: functional, cell-based
[13] = target: T1, Nuclear receptor ROR-gamma (Homo sapiens) (UniProt P51449); assay: Antagonist activity at Gal4-tagged ROR-gamma LBD (unknown origin) transfected in HEK293T cells assessed as reduction in luciferase activity at 0.1 to 1 uM incubated for 24 hrs by Renilla luciferase reporter gene assay; type: cell-based; conditions: filed as antagonist, dose 0.1-1 µM
T1 sequence (whole entry): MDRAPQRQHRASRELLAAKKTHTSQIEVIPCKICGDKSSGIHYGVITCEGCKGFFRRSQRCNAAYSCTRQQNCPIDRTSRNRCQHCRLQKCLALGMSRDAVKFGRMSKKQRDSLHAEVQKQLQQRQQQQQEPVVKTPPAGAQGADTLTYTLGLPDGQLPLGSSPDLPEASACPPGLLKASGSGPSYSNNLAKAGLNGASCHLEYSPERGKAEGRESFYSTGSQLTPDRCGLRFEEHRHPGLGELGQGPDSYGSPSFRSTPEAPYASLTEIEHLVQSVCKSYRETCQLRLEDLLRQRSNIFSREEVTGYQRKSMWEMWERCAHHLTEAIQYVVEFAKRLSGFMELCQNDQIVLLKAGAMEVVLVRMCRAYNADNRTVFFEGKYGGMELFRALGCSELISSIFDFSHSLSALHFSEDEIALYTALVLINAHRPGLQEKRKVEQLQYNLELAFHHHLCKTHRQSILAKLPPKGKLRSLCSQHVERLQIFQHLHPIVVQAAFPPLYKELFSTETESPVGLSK

MV4-11 = assay: Anticancer activity against human MV4-11 cells incubated for 72 hrs; type: functional, cell-based
HPAF-II [14] = assay: Induction of apoptosis in human HPAF-II cells assessed as early apoptotic cells at 10 uM incubated for 48 hrs by Annexin V-FITC/PI staining based flow cytometry (reference value: 0.90 %); type: functional
NCI-H23 [15] = assay: Induction of apoptosis in human NCI-H23 cells assessed as late apoptotic cells at 10 uM incubated for 48 hrs by Annexin V-FITC/PI staining based flow cytometry (reference value: 2.89 %); type: functional
NCI-H23 [16] = assay: Induction of apoptosis in human NCI-H23 cells assessed as late apoptotic cells at 1 uM incubated for 48 hrs by Annexin V-FITC/PI staining based flow cytometry (reference value: 2.89 %); type: functional
HPAF-II [17] = assay: Induction of apoptosis in human HPAF-II cells assessed as necrotic cells at 10 uM incubated for 48 hrs by Annexin V-FITC/PI staining based flow cytometry (reference value: 8.09 %); type: functional
HPAF-II [18] = assay: Cytotoxicity against human HPAF-II cells harboring siROR-gamma assessed as decrease in cell viability at 0.1 uM incubated for 72 hrs by SRB assay; type: functional, cell-based
HEK-293T = assay: Cytotoxicity against HEK293T cells incubated for 72 hrs; type: toxicity, cell-based; conditions: human
HPAF-II [19] = assay: Induction of apoptosis in human HPAF-II cells assessed as early apoptotic cells at 1 uM incubated for 48 hrs by Annexin V-FITC/PI staining based flow cytometry (reference value: 0.90 %); type: functional
HPAF-II [20] = assay: Induction of apoptosis in human HPAF-II cells assessed as early apoptotic cells at 0.1 uM incubated for 48 hrs by Annexin V-FITC/PI staining based flow cytometry (reference value: 0.90 %); type: functional
HPAF-II [21] = assay: Downregulation of AKT phosphorylation level in human HPAF-II cells harboring siROR-gamma at 0.1 uM by Western blot analysis; type: functional, cell-based
HPAF-II [22] = assay: Induction of apoptosis in human HPAF-II cells assessed as early apoptotic cells at 0.01 uM incubated for 48 hrs by Annexin V-FITC/PI staining based flow cytometry (reference value: 0.90 %); type: functional
HPAF-II [23] = assay: Downregulation of ERK phosphorylation level in human HPAF-II cells harboring siROR-gamma at 0.1 uM by Western blot analysis; type: functional, cell-based
HPAF-II [24] = assay: Antitumor activity against human HPAF-II cells xenografted in nude Balb/cA mouse assessed as tumor growth inhibition at 180 mg/kg, po qd measured for 12 days relative to control; type: functional; design: scale not given: the % may be the effect or the level left; conditions: time 12 day
NCI-H358 [25] = assay: Anticancer activity against human NCI-H358 cells incubated for 72 hrs; type: functional, cell-based
[26] = Toxicity in nude Balb/cA mouse xenografted with human HPAF-II cells assessed as body weight loss at 90 to 180 mg/kg, po qd measured for 12 days; type: organism-based; conditions: in vivo, 288 h, dose 90-180 mg/kg, time 12 day
[27] = Clearance in ICR mouse at 3 mg/kg, iv; type: ADME, organism-based; conditions: in vivo
NCI-H23 [28] = assay: Induction of apoptosis in human NCI-H23 cells assessed as necrotic cells at 1 uM incubated for 48 hrs by Annexin V-FITC/PI staining based flow cytometry (reference value: 0.78 %); type: functional
HPAF-II [29] = assay: Downregulation of phosphorylated AKT expression in human HPAF-II cells at 0.1 to 1 uM incubated for 48 hrs by Western blot analysis; type: functional, cell-based; conditions: dose 0.1-1 µM

Structure (SMILES): C=C(C)[C@@H]1CC[C@]2(C(=O)NCCCN(C)C)CC[C@]3(C)[C@H](CC[C@@H]4[C@@]5(C)CC[C@H](O)C(C)(C)[C@@H]5CC[C@]43C)[C@@H]12
- Activity (SW1573): Active
- Activity (PANC-1): Active
- Activity (HPAF-II [1]): Active
- Tmax [2]: 2 h
- Activity (HPAF-II [3]): inactive
- Activity (A549): Active
- Activity (HPAF-II [4]): 76%
- AUC(0-inf) [5]: 3050 ng·h/mL
- half-life [6]: 4.5 h
- Vd [7]: 5.21 L/kg
- Activity (NCI-H1373): Active
- Activity (NCI-H358 [8]): Active
- MRT inf [9]: 5.22 h
- Activity (HPAF-II [10]): 2.06%
- Activity (MIA PaCa-2 [11]): inactive
- Activity (MIA PaCa-2 [12]): Active
- Activity [13]: Active
- Activity (MV4-11): Active
- Activity (HPAF-II [14]): 48.86%
- Activity (NCI-H23 [15]): 28.83%
- Activity (NCI-H23 [16]): 18.15%
- Activity (HPAF-II [17]): 3.33%
- Activity (HPAF-II [18]): inactive
- Activity (HEK-293T): Non-Toxic
- Activity (HPAF-II [19]): 39.49%
- Activity (HPAF-II [20]): 23.73%
- Activity (HPAF-II [21]): Active
- Activity (HPAF-II [22]): 5.34%
- Activity (HPAF-II [23]): Active
- Activity (HPAF-II [24]): 49%
- Activity (NCI-H358 [25]): Active
- Activity [26]: Non-Toxic
- clearance [27]: 16.5 mL/min/kg
- Activity (NCI-H23 [28]): 1.48%
- Activity (HPAF-II [29]): Active
